Source: patent US11278548B2, “Methods and compositions for reducing side effects in chemotherapeutic treatments” (Galderma Research and Development, priority 2017, dated 2022)
Entries after “also recorded” stand apart in the source; their conditions may differ.

Test system: acneiform rash

SMILES: Brc1c(NC2=NCCN2)ccc2nccnc12 [brimonidine, (5-bromo-quinoxalin-6-yl)-(4,5-dihydro-1H-imidazol-2-yl)-amine]
- treated patients with a decrease in rash severity (18 EGFRI-treated patients, CTCAE v4.0 grading, followed for 12 to 24 weeks, n=17, most also on antibiotics or corticosteroids): 94%
- adverse events to brimonidine (18 EGFRI-treated patients, followed for 12 to 24 weeks): not reported; also recorded: no adverse events
- acneiform rash outcome (in words) (EGFRI-treated patients, 83% also receiving systemic antibiotics, topical antibiotics or corticosteroids): improvement in acneiform rash in all patients
- dose modification of anticancer therapies (majority of treated patients): did not require dose modification
